From US20110178092A1, “HIV-1 Protease Inhibitors” (priority 2005, published 2011) come the findings set out here.

In general, Ki refers to the dissociation constant of the complex between target and ligand, obtained from inhibition or displacement.

Read-outs that look alike come from different tables or passages of the source.

Type in all cases: biochemical
Assay [1] concerns the target HIV-1 protease MDR mutant M2 (D30N, L63P, N88D) (Human immunodeficiency virus type 1 group M subtype B, UniProt P04585, D518N/L551P/N576D/Q495K). The note with it: qualitative statement. The source says: (§1) The mutant variants were selected by examining the Stanford HIV-1 Drug Resistance Database (http://hivdb.stanford.edu) of HIV-1 infected-patient sequences of viral isolates. […] (Wu, T. D. et al. J. Virol. 2003, 77, 4836-4847.) These MDR mutant variants are L10I, G48V, I54V, L63P, V82A (M1), D30N, L63P, N88D (M2), and L10I, L63P, A71V, G73S, I84V, L90M (M3).
(§2) The energy transfer donor (EDANS) and acceptor (DABCYL) were labeled at its two ends respectively to perform FRET. Fluorescence measurements were carried out on PTI fluorescence spectrophotometer (Photon Technology International) at 30° C. Excitation and emission wavelengths were set at 340 nm and 490 nm, respectively. Each reaction was recorded for about 10 min. Wide type HIV-1 protease (Q7K) and its MDR mutants M1 (L10I, G48V, I54V, L63P, V82A), M2 (D30N, L63P, N88D), and M3 (L10I, L63P, A71V, G73S, I84V, L90M) were desalted through PD-10 columns (Amersham Biosciences). Sodium Acetate (20 mM, pH 5) was used as elution buffer. Apparent protease concentrations were around 50 nM estimated by UV spectrophotometer (Shimadzu) at 280 nm. All inhibitors were dissolved in DMSO and diluted to appropriate concentrations. Protease (2 μL) and inhibitor (2 μL) or DMSO were mixed and incubated for 20-30 min at room temperature before initialing substrate cleavage reaction. Throughout this work, 150 μL of 1 μM substrate was used. Substrate buffer is composite of 0.1 M sodium acetate, 1 M sodium chloride, 1 mM ethylenediaminetetraacetic acid (EDTA), 1 mM dithiothreitol (DTT), 2% dimethylsulfoxide (DMSO) and 1 mg/mL bovine serum albumin (BSA) with an adjusted pH 4.7. Inhibitor binding dissociation constant (Ki) was obtained by nonlinear regression fitting (GraFit 5, Erithacus software) to the plot of initial velocity as a function of inhibitor concentrations based on Morrison equation.

The target of assay [2] is HIV-1 protease MDR mutant M3 (L10I, L63P, A71V, G73S, I84V, L90M) (Human immunodeficiency virus type 1 group M subtype B, UniProt P04585, A559V/G561S/I572V/L498I/L551P/L578M/Q495K). Particulars: qualitative statement.
Description: as §1, §2

The target in assay [3] is HIV-1 protease MDR mutant M1 (L10I, G48V, I54V, L63P, V82A) (Human immunodeficiency virus type 1 group M subtype B, UniProt P04585, G536V/I542V/L498I/L551P/Q495K/V570A). Particulars: qualitative statement.
Description: as §1, §2

The target of assay [4] is T1, wild type HIV-1 protease (Q7K) (Human immunodeficiency virus type 1 group M subtype B, UniProt P04585, Q495K).
T1 construct: Wide type HIV-1 protease (Q7K)
As to the kind of experiment: FRET HIV-1 protease inhibition assay, wild type. On the procedure: Biological Evaluation of Selected Compounds of the Invention. HIV protease inhibitor activities were determined by fluorescence resonance energy transfer (FRET) method. […] Inhibitor binding dissociation constant (Ki value) was obtained by nonlinear regression fitting to the plot of initial velocity as a function of inhibitor concentration based on Morrison equation.
as §2

The mark [5] stands for this setting: wild type HIV-1 protease (Q7K), FRET, in triplicate, read-out: Ki.

Consider `Cc1cccc(C)c1OCC(=O)N[C@@H](Cc1ccccc1)[C@@H](O)C[C@H](Cc1ccccc1)NC(=O)[C@H](C(C)C)N1CCCNC1=O` [LPV, lopinavir], for which the “activity against M2 mutant relative to wild type (in words)” value in assay [1] is “retains high affinity”. The “activity against M3 mutant relative to wild type (in words)” value in assay [2] was “significantly loses activity”. In assay [3], the “activity against M1 mutant relative to wild type (in words)” value was “significantly loses activity”.
As to `COc1cccc(S(=O)(=O)N(CC2CC2)C[C@@H](O)[C@H](Cc2ccccc2)NC(=O)[C@@H]2CN(c3ccc(F)c(F)c3)C(=O)O2)c1` [36c, (5S)—N-[(1S,2R)-1-Benzyl-3-[(cyclopropylmethyl)[(3-methoxyphenyl)sulfonyl]amino]-2-hydroxypropyl]-3-(3,4-difluorophenyl)-2-oxo-oxazolidine-S-carboxamide], in assay [4] (cyclopropylmethyl at P1' vs isobutyl analog, wild type), the “fold higher Ki than the corresponding inhibitor with isobutyl group at P1'” value is listed as ~9 fold. The inhibition constant Ki in assay [4] (setting [5]) worked out at 0.58 nM.
The compound `CC(=O)c1cccc(N2C[C@@H](C(=O)N[C@@H](Cc3ccccc3)[C@H](O)CN(CC(C)C)S(=O)(=O)c3ccc4c(c3)OCO4)OC2=O)c1` [26e, (5S)-3-(3-Acetylphenyl)-N-[(1S,2R)-3-[[(benzo-[1,3]-dioxole-5-sulfonyl)](isobutyl)amino]-1-benzyl-2-hydroxypropyl]-2-oxo-oxazolidine-S-carboxamide] registered a Ki in assay [4] of 0.006 nM.
Turning to `COc1ccc(S(=O)(=O)N(CC(C)C)C[C@@H](O)[C@H](Cc2ccccc2)NC(=O)[C@@H]2CN(c3ccc(F)c(F)c3)C(=O)O2)cc1F` [27c, (5S)—N-[(1S,2R)-1-Benzyl-3-[[(3-fluoro-4-methoxyphenyl)sulfonyl](isobutyl)amino]-2-hydroxypropyl]-3-(3,4-difluorophenyl)-2-oxo-oxazolidine-S-carboxamide], the Ki in assay [4] (setting [5]) was 0.343 nM.
`COc1ccc(S(=O)(=O)N(CC(C)C)C[C@@H](O)[C@H](Cc2ccccc2)NC(=O)[C@H]2CN(c3ccccc3)C(=O)O2)cc1` [20a, (5R)—N-[(1S,2R)-1-Benzyl-2-hydroxy-3-[isobutyl[(4-methoxyphenyl)sulfonyl]amino]-propyl]-2-oxo-3-phenyloxazolidine-S-carboxamide] had a Ki in assay [4] of 10.7 nM.
Same read-out and setting: the same measure for `CC(=O)c1cccc(N2C[C@@H](C(=O)N[C@@H](Cc3ccccc3)[C@H](O)CN(CC(C)C)S(=O)(=O)c3ccc(N)cc3)OC2=O)c1` [25e, (5S)-3-(3-Acetylphenyl)-N-[(1S,2R)-3-[[(4-aminophenyl)sulfonyl](isobutyl)amino]-1-benzyl-2-hydroxypropyl]-2-oxo-oxazolidine-S-carboxamide]: 0.032 nM.
As for `COc1ccc(S(=O)(=O)N(CC(C)C)C[C@@H](O)[C@H](Cc2ccccc2)NC(=O)[C@@H]2CN(c3cccc(F)c3)C(=O)O2)cc1F` [27b, (5S)—N-[(1S,2R)-1-Benzyl-3-[[(3-fluoro-4-methoxyphenyl)sulfonyl](isobutyl)amino]-2-hydroxypropyl]-3-(3-fluorophenyl)-2-oxo-oxazolidine-S-carboxamide], in assay [4] (setting [5]), the inhibition constant (Ki) came out at 0.07 nM.
